Experimental data from US20050203063A1, “Proteasome pathway inhibitors and related methods” (priority 2003, published 2005).
“Also recorded” adds a separate entry of the source. Like-named read-outs stand apart in the source and are kept apart here.

Experiments:
[1] = tested on: Cdh1-stimulated cyc-luc proteolysis (APC/C); test: cyc-luc turnover in interphase Xenopus extracts stimulated with recombinant Cdh1; type: biochemical; conditions: 200 μM compound; negative values reflect stimulation of proteolysis
Procedure: (§1) FIG. 1. Functional classification of inhibitors. Compounds that scored in the initial screen were reacquired as dry powders and retested in Xenopus extracts in 4 assays at 200 μM concentration (32) as described (6). […] (A) Compounds and cyclin-luciferase were added to interphase extracts, which were then induced to enter mitosis by addition of non-degradable cyclin B. Percent inhibition of cyc-luc turnover by each compound is coded according to the grayscale shown at the bottom of the figure; specific values are available in Table 1. (B) Extracts were pre-treated with non-degradable cyclin B to allow entry into mitosis prior to addition of test compound and reporter protein. (C) Interphase extracts were treated by addition of recombinant Cdh1 to activate cyc-luc turnover. (D) Interphase extracts were treated with recombinant axin to induce turnover of β-catenin-luciferase.
(§2) The “Cmpd” column corresponds to the numbers used in FIG. 1; “Class” refers to the class of inhibitor described in FIG. 1 and the text. Columns A-D show percent inhibition in the four assays described in FIG. 1. (A) Interphase extracts (B) Mitotic extracts (C) Interphase extracts stimulated with Cdh1 (D) Degradation of a β-catenin reporter protein in interphase extracts stimulated with recombinant axin. […] “ID#” refers to the identification number of the inhibitor obtained from the NCI (prefaced by NSC) or Chembridge (prefaced by C).
(§3) Dry compounds were redissolved at 20 mM concentration in DMSO, or a 50:50 water:DMSO mixture in certain cases. These compounds were then diluted ten-fold in XB and mixed thoroughly. For the assay in FIG. 1A, chilled interphase extract was mixed with cyclin BΔ90 (10 μg/ml) and cyc-luc (0.1 μg/ml) in bulk and then 27 μl of extract was pipetted to each well of a chilled 384-well plate. Three microliters of each compound (diluted in XB) was then added to each well, and then compounds mixed thoroughly. Plates were warmed to room temperature. After 70 minutes, 5 μl aliquots were transferred to another plate, and then 30 μl of luciferin reagent was added to each well and luminescence measured. Percent inhibition was calculated as described above. The reported values represent the average of three independent measurments. For the assay in FIG. 1B, interphase extracts were treated with 10 μg/cyclin B 90 for 50 minutes at room temperature and then chilled on ice. Cyc-luc was then added, and then 27 μl of extract was pipetted to each well of a chilled 384-well plate. Three microliters of each compound (diluted in XB) was then added to each well, and then compounds mixed thoroughly. Plates were warmed to room temperature. After 60 minutes, 5 μl aliquots were transferred to another plate, and then 30 μl of luciferin reagent was added to each well and luminescence measured. For the assay in FIG. 1C, recombinant Cdh1 (0.1 μg/ml) and cyc-luc were added to chilled interphase extracts. Extracts were then pipetted and compounds added as above. Plates were warmed to room temperature and incubated for three hours, following which luminescence was measured as above. For the assay in FIG. 1D, chilled interphase extracts received recombinant axin and beta-catenin-luciferase reporter as described (8). Extracts were aliquoted to chilled plates and compounds distributed as described above. Plates were warmed to room temperature, incubated for three hours, and luminescence measured.

[2] = tested on: β-catenin-luciferase turnover (substrate of the SCFβ-TRCP ubiquitin ligase); test: β-catenin-luciferase turnover in interphase Xenopus extracts stimulated with recombinant axin; type: biochemical; conditions: 200 μM compound
Procedure: as §1, §2, §3

26S proteasomes = test: Deubiquitination of UbSic1 by epoxomicin-treated purified 26S proteasomes; type: biochemical, S. cerevisiae; conditions: 100 μM test compound, 100 μM epoxomicin
Procedure: FIG. 2. […] (A) Degradation of UbSic1. Purified 26S proteasomes were preincubated in the presence or absence of test compounds. UbSic1 was then added, and degradation assayed as described (6). Py mock refers to the pyridine solvent in which C23 was dissolved which was marginally inhibitory, unlike the 50% DMSO vehicle used for other test compounds. (B) Deubiquitination of UbSic1. […] UbSic1 was then added, and deubiquitination was assayed as described (6). (C) Titration curve with varying concentrations of C92 to determine half-maximal inhibition of deubiquitination. (D) C92 inhibits binding of UbSic1 to 26S proteasomes. Purified 26S proteasomes immobilized on anti-Flag beads were incubated with UbSic1 in the presence or absence of C92 as described (6). Following binding, beads were washed and analyzed by immunoblotting with anti-Sic1 polyclonal serum. (E) Binding of UbSic1 to the polyUb binding proteins Rpn10 and Rad23 is inhibited by C92. Recombinant Gst-Rpn10 and Gst-Rad23 (1 μg each) were immobilized on glutathione sepharose beads and then incubated with UbSic1 in the presence or absence of C92. Following binding, beads were washed and analyzed by immunoblotting. (F) C92 interacts with multiUb chains. Equivalent amounts (5 μg) of purified Gst, Gst-fusion protein or multiUb chains were incubated with C92 or C1 before being loaded on a 5% native polyacryamide gel. Electrophoresis was performed as described (33). (G) C92 and C59 interact specifically with K48-linked Ub on native gels. Ub (16 μM), K48-linked diUb (8 μM), or tetraUb chains (8 μM) were preincubated with a two fold-molar excess (monoUb and diUb), or equivalent amounts (tetraUb) of test compounds before being resolved on native gels as in (G). Tetra K29Ub, K48Ub, and K63Ub refer to tetraubiquitin chains wherein the ubiquitins are linked via K29, K48, or K63.
FIG. 5. […] Assays were performed and evaluated as summarized in the legend to FIG. 2B. The metal chelating reagent phenanthroline is designated as “P”, and “Py” refers to the pyridine solvent that is used as the solvent for C23. (B) Titration curve for C59. (C) Inhibition of binding of ubiquitin conjugates to Gst-Rpn10 by C92 and C59, but not other compounds. The experiment was performed as described for FIG. 2E.
(§4) 26S proteasomes were purified from S. cerevisiae cells expressing a Flag-tagged proteasomal subunit (PRE1) essentially as described (28).
Reactions were processed as above.

[3] = biological target: T1, 20S core peptidase activity (Saccharomyces cerevisiae, UniProt P25043+P30656+P38624); test: 20S core peptidase activity in native gel with fluorescent substrate; type: biochemical
T1 construct: made in house; host or cells: S. cerevisiae cells expressing Flag-tagged PRE1
Procedure: FIG. 6. […] (A) Purified 26S proteasomes were preincubated with test compounds before being resolved on a native gel. Following electrophoresis, the gel was stained with Coomassie Blue. […] Same as (A), except that following electrophoresis, the gel was incubated with fluorescent substrate to determine peptidase activity, which was visualized using a UV transilluminator (9). […] (C) Untreated 26S proteasomes were resolved on a native gel. Following electrophoresis, the gel was incubated with the peptidase substrate in the presence of ubistatin.
as §4

Compound	percent inhibition of cyc-luc turnover, (C) Interphase extracts stimulated with Cdh1 [1] [%]	percent inhibition, (D) Degradation of a β-catenin reporter protein in interphase extracts stimulated with recombinant axin [2] [%]	inhibition of deubiquitination of UbSic1 (in words) (26S proteasomes)	effect on 20S core peptidase activity ([3]; listed as C92)	effect on 20S core peptidase activity [3]	inhibition of deubiquitination of UbSic1 (in words) (26S proteasomes; listed as C23)
O=C(Nc1ccc(/C=C/c2ccc(NC(=O)c3cc(S(=O)(=O)O)c4cccnc4c3O)cc2S(=O)(=O)O)c(S(=O)(=O)O)c1)c1cc(S(=O)(=O)O)c2cccnc2c1O [Compound 92]	65	21	completely blocked	does not affect; also recorded: without affecting	–	–
O=S(=O)(O)c1ccc2cc3c(cc2c1)NN(c1ccc(/C=C/c2ccc(N4Nc5cc6ccc(S(=O)(=O)O)cc6cc5N4)cc2S(=O)(=O)O)c(S(=O)(=O)O)c1)N3 [Compound 59]	100	70	Complete inhibition	–	without affecting	–
CC(=O)Nc1ccc(SSc2ccc(NC(C)=O)c3cccnc23)c2ncccc12 [Compound 23]	100	27	–	–	without effect	marginal inhibition; also recorded: inhibited marginally
